What is called pIC50 is −log10 of the IC50, conventionally taken in molar units.

In assay [1] the test system is HDAC5 and pain related genes in TG. The assay can be described thus: RT-PCR of TG gene expression. The format is in vivo, mouse. On the procedure:
To confirm that the anti-allodynic mechanism provided by LMK235 was accompanied by changes in RNA of specific pain relate genes, TG expression of several genes was assessed in the TG of LMK235-treated and untreated FRICT-ION groups to naïve controls with RT-PCR (FIG. 12).
Primers were ordered from Bio-Rad Laboratories, Inc. (Hercules, CA). Samples were run by UNM Human Tissue Repository Core facility. 400 μg of total RNA was transcribed into cDNA using iScript cDNA synthesis kit (Catalog #1708890, BioRad Laboratories, Inc., Hercules, CA, USA). Relative analysis of HDAC5 by Sybr Green qRT-PCR was run in order to validate the results observed via RNAseq. All primers, housekeeping gene primers, and the amplicon context sequence were purchased pre-validated from Bio-Rad Laboratories, Inc. (PrimePCR SYBR Green Assay: HDAC5, Mouse, qMmuCID0021326; Bio-Rad Laboratories, Inc., Hercules, CA). All qRT-PCR amplification reactions were done in 20 μl volumes in triplicate using iTaq Universal SYBR Green Supermix (Catalog #1725122, Bio-Rad Laboratories, Inc., Hercules, CA) in 96-well plates and run on a LightCycler 96 qRT-PCR system (Roche, Germany). The Amplification program used for amplification was an initial activation step of 95° C. for two minutes followed by 40 cycles at 95° C. for five seconds and 60° C. for 30 seconds, and concluding with a melt curve of 65° C.-95° C. with five seconds/step. qRT-PCR was done on the HDAC5 gene target and two housekeeping genes within each of the treated and untreated controls and experimental conditions. qRT-PCR data were analyzed using the 2-ΔΔcT method (Livak K J, Schmittgen T D, Methods 2001 December;25(4):402-408). Briefly, the mean ΔcT of each differentially expressed gene target assayed for, in both the experimental conditions and the untreated controls was calculated by subtracting the mean cT from the mean cT of the housekeeping genes values for each sample type. ΔΔcT was then calculated by subtracting the experimental ΔcT group from the control Act group. Expression fold change was expressed as 2-ΔΔcT.

In assay [2] the target is HDAC 5 (Homo sapiens, UniProt Q9UQL6). To be noted: cited from earlier work.
Chain of HDAC 5 (Q9UQL6 whole entry, species assumed): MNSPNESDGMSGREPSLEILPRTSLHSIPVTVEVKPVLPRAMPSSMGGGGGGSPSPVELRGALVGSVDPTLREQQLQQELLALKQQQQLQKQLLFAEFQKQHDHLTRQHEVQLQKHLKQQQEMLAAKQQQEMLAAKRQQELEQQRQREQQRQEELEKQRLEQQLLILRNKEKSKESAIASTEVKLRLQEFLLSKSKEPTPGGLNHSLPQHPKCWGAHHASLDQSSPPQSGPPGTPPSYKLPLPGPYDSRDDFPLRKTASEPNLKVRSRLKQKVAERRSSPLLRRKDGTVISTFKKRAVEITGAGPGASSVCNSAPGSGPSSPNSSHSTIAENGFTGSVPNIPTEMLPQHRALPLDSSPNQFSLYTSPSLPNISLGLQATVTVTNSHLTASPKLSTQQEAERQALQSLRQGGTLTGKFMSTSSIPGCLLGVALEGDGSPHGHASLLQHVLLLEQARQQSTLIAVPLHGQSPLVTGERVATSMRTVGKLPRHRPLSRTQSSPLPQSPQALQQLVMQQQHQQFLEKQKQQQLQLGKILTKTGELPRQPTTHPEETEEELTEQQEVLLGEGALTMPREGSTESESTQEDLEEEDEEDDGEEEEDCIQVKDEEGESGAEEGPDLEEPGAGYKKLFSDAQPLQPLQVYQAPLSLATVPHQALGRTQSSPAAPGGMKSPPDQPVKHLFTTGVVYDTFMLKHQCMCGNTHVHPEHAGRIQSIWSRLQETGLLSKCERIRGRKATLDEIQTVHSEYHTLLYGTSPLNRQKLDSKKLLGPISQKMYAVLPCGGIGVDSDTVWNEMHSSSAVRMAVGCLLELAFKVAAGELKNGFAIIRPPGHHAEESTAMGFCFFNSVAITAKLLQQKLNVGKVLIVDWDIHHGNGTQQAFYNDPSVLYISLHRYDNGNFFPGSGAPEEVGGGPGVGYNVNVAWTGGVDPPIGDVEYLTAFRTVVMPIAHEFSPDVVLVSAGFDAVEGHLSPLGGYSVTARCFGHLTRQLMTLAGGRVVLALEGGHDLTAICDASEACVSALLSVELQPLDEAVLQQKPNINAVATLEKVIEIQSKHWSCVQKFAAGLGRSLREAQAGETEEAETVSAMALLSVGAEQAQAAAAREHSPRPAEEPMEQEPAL
Assay [3] deals with mice with trigeminal nerve injury. Nature of the assay: Light/dark place preference test (anxiety-like behavior). The format is in vivo, mouse. To be noted: nerve-injured mice, weeks 6-9 post surgery. On the procedure:
Anxiety-related behaviors were assessed in a manner typical in the literature—i.e., once at the end in week 8 since anxiety develops only in mice 6-8 weeks after persisting nerve injury (e.g., Lyons et al., Neuroscience 2015 Jun. 4; 295:126-138). The effects of HDACi on chronic craniofacial pain-related behaviors were assessed using light/dark place preference test and zero maze.
Animals were exposed to acoustic startle (5 minutes) immediately prior to placement in the light/dark place preference box as in a previous study (Lyons et al., Neuroscience 2015 Jun. 4; 295:126-138). Mils acoustic startle stress just prior to the test induces panic anxiety-like behavior with increased time and entries in the open arms compared to controls (de Paula HMG, Hoshino K, Behav Brain Res 2003 Dec. 17; 147(1-2):157-162; de Paula HMG, Hoshino K, Physiol Behav 2004 January; 80(4):459-464; Kontinen et al., Pain 1999 March;80(1-2):341-346). In the light/dark box place preference task (total time 10 minutes) anxiety-like behaviors were recorded as: (i) total time spent in the light area, (ii) number of entries into the light area, (iii) number of rearing events/exploratory behavior, (iv) latency of the first transition into the light chamber, and (v) latency of first re-entry (transition) back into the dark chamber.

The mark [4] stands for this setting: LMK235-treated FRICT-ION mice, week 10.

pIC50: −log10 of the molar value. “Also recorded” adds a separate entry of the source.

For `Cc1cc(C)cc(C(=O)NOCCCCCC(=O)NO)c1` [LMK235, N-[[6-(Hydroxyamino)-6-oxohexyl]oxy]-3,5-dimethyl-benzamide], in assay [1] (LMK235-treated FRICT-ION mice), the HDAC5 expression entry is “reduced”, the Hist1h2bc change is 1.4 fold and the Hist2h2aa1 change is given as 1.6 fold. Also, in assay [1] (setting [4]), the “CCKBR RNA” value is given as “normalized”, the “GNAI2 RNA” value was “partially restored”, the “IFIT1 RNA” value is reported as “partially restored” and the “NTS RNA” value is on record as “normalized”. The “SCFN9 RNA” value in assay [1] (setting [4]) is “normalized”. Besides, the HDAC5 expression entry in assay [1] (LMK235-treated naïve controls) was “reduced”. Besides, in assay [1] (LMK235-treated naïve mice), the “changes in HDAC10 gene” value was “not observed” and the “changes in HDAC11 gene” value is on record as “not observed”. In addition, the pIC50 in assay [2] was 8.40. Besides, in assay [3], the “anxiety-like behaviors, light/dark box test” value is recorded as “reduction of anxiety measures; also recorded: inhibited the development of anxiety-like behaviors”.

The record behind these values is patent US20250345295A1, “LMK235 COMPOSITIONS AND METHODS” (UNM Rainforest Innovations, priority 2024, published 2025).
